Experimental data reported in patent publication US20030135065A1, “Process for the production of L-DOPA ethyl ester” (priority 2001, published 2003).

How the values were obtained:
[1] = Hygroscopicity of L-DOPA ethyl ester forms; assay type: physicochemical
Excerpt: (§1) Great Britain Patent No. 1,364,505 and corresponding U.S. Pat. No. 3,803,120, assigned to Hoffman-La Roche, describe the synthesis of L-DOPA ethyl ester hydrochloride salt and free base. This compound is used as an intermediate in the synthesis of other compounds and is not characterized in the patent specification. […] This material cannot be used for pharmaceutical compositions. Likewise, the L-DOPA ethyl ester free base as prepared in these two patents is impure and not stable and thus also is not suitable for pharmaceutical compositions. At best it can be used as a synthetic intermediate for further chemical synthesis as described in the cited patents.
(§2) L-DOPA ethyl ester as free base obtained by this process is stable, non-hygroscopic, and crystalline. The LDEE free base has a particle size from 5 to 300 micron and an average particle size of 80 micron.

[2] = Stability of L-DOPA ethyl ester forms; assay type: physicochemical
Excerpt: as §1, §2

[3] = Particle size of LDEE free base; assay type: physicochemical; conditions: free base obtained by this process
Excerpt: as §2

[4] = composition produced according to the Milman process (U.S. Pat. No. 5,354,885); 6 months at 40° C.; cited from earlier work
[5] = material synthesized by the methods of GB 1,364,505 / U.S. Pat. No. 3,803,120
[6] = free base obtained by this process

hygroscopicity [1, 5]	stability [2, 5]	average particle size [3]	hygroscopicity [1, 6]	stability [2, 6]	Compound	L-DOPA ethyl ester remaining after incubation [4]
hygroscopic	not stable	–	–	–	CCOC(=O)[C@@H](N)Cc1ccc(O)c(O)c1.Cl [L-DOPA ethyl ester hydrochloride salt, L-DOPA ethyl ester hydrochloride, reference compound]	–
–	not stable	80 micron	non-hygroscopic	stable	CCOC(=O)[C@@H](N)Cc1ccc(O)c(O)c1 [L-DOPA ethyl ester]	at least 97 % by weight
